# Earlier results in US12364655B2, “Semisolid oral dispersions comprising active agents” (The Procter & Gamble Company, priority 2019, dated 2025).
# Where two headings read alike, the source gives them in different places.
# Conditions: from supplier Safety Data Sheet, supplier Product Data Sheet (estimated) or Wikipedia
smiles,measurement,setting,value
"NC(N)=O.OO [Urea Peroxide, Urea Hydrogen Peroxide Adduct]",Solubility in Water (number of parts by weight per 100 parts by weight of water),,80 parts by weight per 100 parts by weight of water
same,Solubility in Water (number of parts by weight per 100 parts by weight of water),listed as urea peroxide,80 parts by weight per 100 parts
